Common to all, as to type: cell-based
Series [1] relates to Staphylococcus aureus ATCC 29213 = CCM 4223. The series is described as follows: MIC, microdilution method. Particulars: Staphylococcus aureus. As for the experimental part:
(§1) Disposable microtiter plates are used for testing. Samples are dissolved in infusion medium from brain and heart (BHI, HiMedia Laboraties Pvt. Ltd., Czech Republic) and Mueller-Hinton broth (HiMedia Laboraties, see above) to a final concentration ranging from 200 μg/ml to 1.5625 μg/ml. Plates are inoculated with a standard amount of test bacteria—the density of the inoculum in the well corresponds to 10^5-6 CFU/ml (colony forming units/ml, i.e. the number of viable bacterial cells/ml). MIC values are read after 24/48 hours of incubation at 37° C. as the minimum inhibitory concentration of the test substance at which bacterial growth is inhibited. The minimum bactericidal concentration (MBC) is characterized as the minimum concentration of the sample required to achieve irreversible inhibition, i.e. to kill the bacteria after a defined incubation period. MBC is determined by the inoculation method. Using an applicator, 10 μl from the well of a microtiter plate with a defined concentration of the test substance is taken to inoculate the surface of blood agar (Trios, Czech Republic). MBC is determined as the lowest concentration that inhibits the visible growth of the bacterium used on agar.

For series [2], the system named is Staphylococcus epidermidis CCM 7221. Description: MIC, microdilution method. Particulars: Staphylococcus epidermidis, CCM7221. As to the method: as §1
For a further series, the system named is Pseudomonas aeruginosa R. The series is described as follows: MIC, microdilution method. The settings on record: Pseudomonas aeruginosa. As for the experimental part:
as §1

In series [3] the test system is Staphylococcus aureus 4591. The series is described as follows: MIC, microdilution method. The settings on record: Staphylococcus aureus, 4591. As for the experimental part: as §1
A general note: Dilution methods test growth across graded concentrations, often in twofold steps.

In a further series the test system is Enterobacter kobei 3683. The series is described as follows: MIC, microdilution method. Particulars: Enterobacter kobei, 3683. As to the method: as §1
The test system of series [4] is Pseudomonas aeruginosa ATCC 27853 = CCM 3955. The series is described as follows: MIC, microdilution method. The settings on record: Pseudomonas aeruginosa. As for the experimental part:
as §1

For series [5], the system named is Enterococcus faecalis ATCC 29212 = CCM 4224. Description: MIC, microdilution method. The settings on record: Enterococcus faecalis. As for the experimental part:
as §1

Series [6] has as its system Enterococcus faecium 419/ANA. Description: MIC, microdilution method. Particulars: Enterococcus faecium, 419/ANA. As for the experimental part: as §1
The subject of series [7] is Escherichia coli ATCC 25922 = CCM 3954. The series is described as follows: MIC, microdilution method. Particulars: Escherichia coli. As to the method:
as §1

For the next series, the system named is Escherichia coli CE5556. The series is described as follows: MIC, microdilution method. The settings on record: Escherichia coli, CE5556. As to the method: as §1
Another series deals with erythrocytes. Description: Haemolytic activity of soluble samples. As for the experimental part: Blood from three donors is mixed and centrifuged (10 min, 1000 g, 4° C.). The erythrocytes obtained are washed three times with NaCl solution (150 mmol·l^−1) and then used for experiments. Sample stock solutions are prepared in DMSO so that the final concentration of DMSO in NaCl is 0.5% (v/v). NaCl solution with the appropriate volume of DMSO serves as the negative control. 1% Triton-X100 is the positive control. The erythrocytes obtained are diluted to 2% with NaCl solution and pipetted into Eppendorf tubes (250 μl) with constant stirring. Samples and positive and negative controls are added to the erythrocytes prepared in this way and incubated (3 hours, 37° C.). The tubes are stirred during the incubation. After centrifugation (5 min, 1000 g), haemolytic activity is monitored by haemoglobin determination. The HC50 value is calculated from the measured absorbance values. The test is performed in triplets in three independent replicates. Iron Fe^2+ in haemoglobin is oxidized with potassium ferricyanide to iron Fe^3+ in methaemoglobin, which produces stable cyanomethaemoglobin with potassium cyanide, the concentration of which is determined spectrophotometrically. After the incubation of the erythrocytes with the substances, the cells are centrifuged (5 min, 1000 g), then Drabkin's solution (200 μl) is added to the supernatant (40 μl) and after incubation (10 min), the absorbance at 540 nm is measured.

For series [8], the system named is Candida albicans ATCC 90028 = CCM 8161. Description: MIC, microdilution method. Particulars: Candida albicans.

Data on two compounds can be found in US12540148B2, “Lipophosphonoxins, their preparation and use” (USTAV ORGANICKE CHEMIE A BIOCHEMIE AV CR, V. V. I., priority 2019, dated 2026).

Counter-ions that a name gives are not always drawn.

One may read the MIC as the lowest concentration found to suppress growth. Higher therefore signals a need for much substance.

`CCCCCOP(=O)(CCN(CCCN)CCCN)OCCCCCCCCCCCCOP(=O)(CCN(CCCN)CCCN)OCCCCC` (stereo not drawn) [Example 48, Dodecane-1,12-diyl dipentyl bis((2-(bis(3-aminopropyl)amino)ethyl)-phosphonate) hexahydrochloride]: the MIC in series [1] came to 1 µg/mL; in series [2] it was 0.5 µg/mL; in the series on Pseudomonas aeruginosa R, 2 µg/mL; in [3] it was 1 µg/mL; against Enterobacter kobei 3683, 1 µg/mL; in [4], 2 µg/mL. Moreover, the MIC was 1 µg/mL in series [5]; 1 µg/mL in series [6]; 1 µg/mL in series [7]; 1 µg/mL in the series with Escherichia coli CE5556; 2 µg/mL in series [8]. Moreover, the “HC50 ± SD” value in the series on erythrocytes amounted to 4.
On to `CC(C)COP(=O)(CCN(CCCN)CCCN)OCCCCCCCCCCCCCCOP(=O)(CCN(CCCN)CCCN)OCC(C)C` (stereo not drawn) [Example 51, Tetradecane-1,14-diyl diisobutyl bis((2-(bis(3-aminopropyl)amino)ethyl)-phosphonate) hexahydrochloride], for which the MIC in series [1] stood at 2 µg/mL; in series [2], 0.5 µg/mL; in the series on Pseudomonas aeruginosa R it was 4 µg/mL; in [3], 2 µg/mL; in the series with Enterobacter kobei 3683, 64 µg/mL; in series [4], 4 µg/mL. Further, the MIC in series [5] was 4 µg/mL; in series [6], 16 µg/mL; in series [7] it was 16 µg/mL; against Escherichia coli CE5556, 32 µg/mL; in series [8] it was 32 µg/mL. Also, in the series with erythrocytes, the “HC50 ± SD” value is above 100.
